Earlier results, collected in PMC11599114 (Viruses, 2024).

System: influenza A virus(oseltamivir-resistant strain)
Set-up: method as in ref 30447229
Conditions: MDCK

For KFFRKKSVKK [DRAVPe01822], which EC50 is on record?
Its EC50 is 18.9 ± 7 µM.
